Laboratory results published in patent publication US10028508B2, “Use of active compound compositions” (BAYER CROPSCIENCE AKTIENGESELLSCHAFT, priority 2014, dated 2018).
Where two headings read alike, the source gives them in different places.

Test system: Anopheles funestus metabolic-resistant strain FUMOZ-R
Assay: Metabolic-Resistant Anopheles Test (mortality on treated tile, wood, concrete)
Assay type: in vivo
Conditions: for mortality at 12.5 mg/m2: Deltamethrin 12.5 mg/m2, read-out: Mortality Effect %; for mortality at 25 mg/m2: Deltamethrin 25 mg/m2, read-out: Mortality Effect %
Method: To produce a suitable preparation of active compound combination the active compounds deltamethrin and clothanidin were dissolved in acetone (for the control group only one active compound was dissolved in acetone). The active compound combination preparation (and the active compound preparations) were pipetted onto a glazed tile, wood and concrete and, after drying, adult mosquitoes of the species Anopheles funestus metabolic-resistant strain FUMOZ-R (Hunt et al., Med Vet Entomol. 2005 September; 19(3):271-5) are placed onto the treated tile, wood and concrete. The exposition time is 30 minutes.
1 hour, 2 hour, 4 hour, 24 hours after contact to the treated surface, the mortality proportion of the test animals in % is determined. Here, 100% means that all mosquitoes have been killed; 0% means that none of the mosquitoes has been killed. The treated tile, wood and concrete was stored under stress conditions (30° C./80% rh). Measurement with the treated tile, wood and concrete was repeated 5 weeks (Table 1), 11 weeks (Table 2) and 60 weeks (Table 3) after the treatment with the active compound combination.

[1] = 5 weeks after treatment, Concrete, 1 h after contact
[2] = 5 weeks after treatment, Concrete, 2 h after contact
[3] = 5 weeks after treatment, Concrete, 4 h after contact
[4] = 5 weeks after treatment, Concrete, 24 h after contact
[5] = 5 weeks after treatment, Tile, 1 h after contact
[6] = 5 weeks after treatment, Tile, 2 h after contact
[7] = 5 weeks after treatment, Tile, 4 h after contact
[8] = 5 weeks after treatment, Tile, 24 h after contact
[9] = 5 weeks after treatment, Wood, 1 h after contact
[10] = 5 weeks after treatment, Wood, 2 h after contact
[11] = 5 weeks after treatment, Wood, 4 h after contact
[12] = 5 weeks after treatment, Wood, 24 h after contact
[13] = 11 weeks after treatment, Concrete, 1 h after contact
[14] = 11 weeks after treatment, Concrete, 2 h after contact
[15] = 11 weeks after treatment, Concrete, 4 h after contact
[16] = 11 weeks after treatment, Concrete, 24 h after contact
[17] = 11 weeks after treatment, Tile, 1 h after contact
[18] = 11 weeks after treatment, Tile, 2 h after contact
[19] = 11 weeks after treatment, Tile, 4 h after contact
[20] = 11 weeks after treatment, Tile, 24 h after contact
[21] = 11 weeks after treatment, Wood, 1 h after contact
[22] = 11 weeks after treatment, Wood, 2 h after contact
[23] = 11 weeks after treatment, Wood, 4 h after contact
[24] = 11 weeks after treatment, Wood, 24 h after contact
[25] = 60 weeks after treatment, Concrete, 1 h after contact
[26] = 60 weeks after treatment, Concrete, 2 h after contact
[27] = 60 weeks after treatment, Concrete, 4 h after contact
[28] = 60 weeks after treatment, Concrete, 24 h after contact
[29] = 60 weeks after treatment, Tile, 1 h after contact
[30] = 60 weeks after treatment, Tile, 2 h after contact
[31] = 60 weeks after treatment, Tile, 4 h after contact
[32] = 60 weeks after treatment, Tile, 24 h after contact
[33] = 60 weeks after treatment, Wood, 1 h after contact
[34] = 60 weeks after treatment, Wood, 2 h after contact
[35] = 60 weeks after treatment, Wood, 4 h after contact
[36] = 60 weeks after treatment, Wood, 24 h after contact

Which results are given for `CC1(C)[C@H](C(=O)O[C@H](C#N)c2cccc(Oc3ccccc3)c2)[C@@H]1C=C(Br)Br` [Deltamethrin, deltamethrin]?
mortality at 12.5 mg/m2 [1]: 70%; mortality at 25 mg/m2 [1]: 90%; mortality at 12.5 mg/m2 [2]: 87%; mortality at 25 mg/m2 [2]: 100%; mortality at 12.5 mg/m2 [3]: 100%; mortality at 25 mg/m2 [3]: 100%; mortality at 12.5 mg/m2 [4]: 30%; mortality at 25 mg/m2 [4]: 73%; mortality at 12.5 mg/m2 [5]: 17%; mortality at 25 mg/m2 [5]: 7%; mortality at 12.5 mg/m2 [6]: 77%; mortality at 25 mg/m2 [6]: 83%; mortality at 12.5 mg/m2 [7]: 97%; mortality at 25 mg/m2 [7]: 100%; mortality at 12.5 mg/m2 [8]: 100%; mortality at 25 mg/m2 [8]: 93%; mortality at 12.5 mg/m2 [9]: 10%; mortality at 25 mg/m2 [9]: 30%; mortality at 12.5 mg/m2 [10]: 77%; mortality at 25 mg/m2 [10]: 90%; mortality at 12.5 mg/m2 [11]: 80%; mortality at 25 mg/m2 [11]: 93%; mortality at 12.5 mg/m2 [12]: 77%; mortality at 25 mg/m2 [12]: 83%; mortality at 12.5 mg/m2 [13]: 3%; mortality at 25 mg/m2 [13]: 13%; mortality at 12.5 mg/m2 [14]: 0%; mortality at 25 mg/m2 [14]: 43%; mortality at 12.5 mg/m2 [15]: 17%; mortality at 25 mg/m2 [15]: 63%; mortality at 12.5 mg/m2 [16]: 30%; mortality at 25 mg/m2 [16]: 73%; mortality at 12.5 mg/m2 [17]: 0%; mortality at 25 mg/m2 [17]: 10%; mortality at 12.5 mg/m2 [18]: 0%; mortality at 25 mg/m2 [18]: 33%; mortality at 12.5 mg/m2 [19]: 0%; mortality at 25 mg/m2 [19]: 43%; mortality at 12.5 mg/m2 [20]: 3%; mortality at 25 mg/m2 [20]: 63%; mortality at 12.5 mg/m2 [21]: 0%; mortality at 25 mg/m2 [21]: 0%; mortality at 12.5 mg/m2 [22]: 0%; mortality at 25 mg/m2 [22]: 27%; mortality at 12.5 mg/m2 [23]: 20%; mortality at 25 mg/m2 [23]: 80%; mortality at 12.5 mg/m2 [24]: 13%; mortality at 25 mg/m2 [24]: 70%; mortality at 12.5 mg/m2 [25]: 0%; mortality at 25 mg/m2 [25]: 0%; mortality at 12.5 mg/m2 [26]: 0%; mortality at 25 mg/m2 [26]: 0%; mortality at 12.5 mg/m2 [27]: 0%; mortality at 25 mg/m2 [27]: 0%; mortality at 12.5 mg/m2 [28]: 13%; mortality at 25 mg/m2 [28]: 23%; mortality at 12.5 mg/m2 [29]: 0%; mortality at 25 mg/m2 [29]: 0%; mortality at 12.5 mg/m2 [30]: 0%; mortality at 25 mg/m2 [30]: 7%; mortality at 12.5 mg/m2 [31]: 17%; mortality at 25 mg/m2 [31]: 23%; mortality at 12.5 mg/m2 [32]: 30%; mortality at 25 mg/m2 [32]: 53%; mortality at 12.5 mg/m2 [33]: 0%; mortality at 25 mg/m2 [33]: 0%; mortality at 12.5 mg/m2 [34]: 0%; mortality at 25 mg/m2 [34]: 10%; mortality at 12.5 mg/m2 [35]: 17%; mortality at 25 mg/m2 [35]: 37%; mortality at 12.5 mg/m2 [36]: 43%; mortality at 25 mg/m2 [36]: 43%
